Assays:
Format in all cases: cell-based, human
[1] = test system: A-2058 melanoma cell line; assay: DIMSCAN cytotoxicity, fenretinide + L-threo-sphinganines 3:1 (Example B11); settings: 96 h
Description: (§1) Cytotoxicity Assay—Once again, cytotoxicity is determined using the DIMSCAN assay system (R. Proffitt et al., Cytometry 24, 204-213 (1996); T. Frgala et al., Mol Cancer Ther. 6:886-97, 2007). The system employs digital imaging microscopy to quantify viable cells, which selectively accumulate fluorescein diacetate to become brightly fluorescent. The system is capable of measuring cytotoxicity over a 4-5 log dynamic range by quenching the residual fluorescence of dead and dying cells with eosin Y and quantifying the total fluorescence of viable cells using digital thresholding. Measured fluorescence is directly proportionate to the number of viable cells. A comparison of the total fluorescence of a drug-treated cell population to the fluorescence of a similar number of untreated cells yields a survival fraction. In brief, 2000 to 10,000 cells/well (depending on size and growth rates) are replicate plated into 60 wells of a 96-well tissue culture plate in 0.1 mL of whole medium and allowed to attach overnight. Drug(s) are then added in 0.05 mL of whole medium to the final concentrations indicated. Drugs (fenretinide, and various chain length L-threo-sphinganines) were tested both as single agents and in a 3:1 ratio of fenretinide:sphinganine. C18-L-threo-sphinganine, or “safingol,” was also tested and results shown for reference. There are 12 wells treated per drug concentration. Twelve wells receive drug vehicle-only to the appropriate final concentration and serve as controls for the plate. Cells are incubated for 96 hours at 37° C. in ambient air with 5% CO2. Fluorescein diacetate is then added to each well in 0.05 mL media to a final concentration of 8 microgram/mL. Cells are incubated for a further 15 minutes at 37° C. and 0.03 mL of 0.5% eosin Y is added to each well. Total fluorescence of viable cells is then measured by digital imaging microscopy. Results were graphed as the ratio of the fluoresecence of drug-treated wells to non-drug treated control wells (i.e., Survival Fraction). All tests were performed at least twice. Representative results are shown.
(§2) The Combination Index (CI) is a term to describe mathematical modeling of the pharmacologic effects on cytotoxicity (cell death) of two drugs in combination based. Cytotoxic “synergy” is defined as a cell death affect which is greater than would be expected from a simple product of the single agent cytotoxicities alone (i.e. an “additive” effect). By Chou-Talalay analysis, a CI<0.9 on a Fraction Affected (“Fa”, i.e. fraction of cells killed) indicates synergy, with smaller numbers indicating greater synergy; a CI of 0.9-1.1 signifies an additive or near-additive effect; and a CI>1.1 means the drug combination is antagonistic.
Fenretinide and L-threo-sphinganines tested in human melanoma (skin cancer) cell line, A-2058.

[2] = test system: RPMI-8226 Multiple Myeloma cell line; assay: DIMSCAN cytotoxicity, fenretinide + L-threo-sphinganines 3:1 (Example B2); settings: 96 h
Description: as §1, §2
Fenretinide and L-threo-sphinganines tested in human Multiple Myeloma (a cancer of the blood and bone marrow) cell line, RPMI-8226.

[3] = test system: OVCAR-8 ovarian adenocarcinoma cell line; assay: DIMSCAN cytotoxicity, fenretinide + L-threo-sphinganines 3:1 (Example B15); parameters: key to CI (Combination Index): Chou-Talalay CI: <0.9 synergy, 0.9-1.1 additive, >1.1 antagonism; settings: 96 h
Description: as §1, §2
Fenretinide and L-threo-sphinganines tested in human ovarian adenocarcinoma (ovarian cancer) cell line, OVCAR-8.

[4] = test system: PC-3 prostate adenocarcinoma cell line; assay: DIMSCAN cytotoxicity, fenretinide + L-threo-sphinganines 3:1 (Example B17)
Description: as §1, §2
Fenretinide and L-threo-sphinganines tested in human prostate adenocarcinoma (prostate cancer) cell line, PC-3.

[5] = test system: SJ-G2 Glioblastoma cell line; assay: DIMSCAN cytotoxicity, fenretinide + L-threo-sphinganines 3:1 (Example B8); settings: 96 h
Description: as §1, §2
Fenretinide and L-threo-sphinganines tested in human Glioblastoma (brain cancer) cell line, SJ-G2.

[6] = 4-HPR 1.5 μM + L-threo-sphinganine 0.5 μM
[7] = 4-HPR 3 μM + L-threo-sphinganine 1 μM
[8] = 4-HPR 6 μM + L-threo-sphinganine 2 μM
[9] = 4-HPR 9 μM + L-threo-sphinganine 3 μM

SMILES	CI (Combination Index) [1, 6]	Fa (fraction affected) [1, 6]	CI (Combination Index) [1, 7]	Fa (fraction affected) [1, 7]	CI (Combination Index) [1, 8]	Fa (fraction affected) [1, 8]	CI (Combination Index) [1, 9]	Fa (fraction affected) [1, 9]	CI (Combination Index) [2, 6]	Fa (fraction affected) [2, 6]	CI (Combination Index) [2, 7]	Fa (fraction affected) [2, 7]	CI (Combination Index) [2, 8]	Fa (fraction affected) [2, 8]	CI (Combination Index) [2, 9]	Fa (fraction affected) [2, 9]	CI (Combination Index) [3, 6]	Fa (fraction affected) [3, 6]	CI (Combination Index) [3, 7]	Fa (fraction affected) [3, 7]	also measured
CCCCCCCCCCCC[C@H](O)[C@@H](N)CO [C15]	0.5	0.053	0.9	0.106	1.6	0.262	1.7	0.867	1.0	0.518	1.1	0.75	0.5	0.978	0.2	0.998	0.1	0.668	0.1	0.854	CI (Combination Index) [3, 8]: 0.1; Fa (fraction affected) [3, 8]: 0.977; CI (Combination Index) [3, 9]: 0.2; Fa (fraction affected) [3, 9]: 0.977; CI [4, 6]: 0.6; Fa [4, 6]: 0.200; CI [4, 7]: 0.9; Fa [4, 7]: 0.287; CI [4, 8]: 1.2; Fa [4, 8]: 0.417; CI [4, 9]: 1.0; Fa [4, 9]: 0.621; CI (Combination Index) [5, 6]: 1.1; Fa (fraction affected) [5, 6]: 0.135; CI (Combination Index) [5, 7]: 1.3; Fa (fraction affected) [5, 7]: 0.282; CI (Combination Index) [5, 8]: 1.3; Fa (fraction affected) [5, 8]: 0.620; CI (Combination Index) [5, 9]: 1.0; Fa (fraction affected) [5, 9]: 0.846
CCCCCCCCCCCCCCCCCC[C@H](O)[C@@H](N)CO [C21]	0.7	0.016	1.4	0.016	1.9	0.333	1.9	0.955	1.2	0.517	1.6	0.722	1.6	0.955	1.1	0.999	0.1	0.626	0.1	0.870	CI (Combination Index) [3, 8]: 0.1; Fa (fraction affected) [3, 8]: 0.977; CI (Combination Index) [3, 9]: 0.2; Fa (fraction affected) [3, 9]: 0.975; CI [4, 6]: 1.7; Fa [4, 6]: 0.215; CI [4, 7]: 1.4; Fa [4, 7]: 0.350; CI [4, 8]: 1.6; Fa [4, 8]: 0.479; CI [4, 9]: 0.9; Fa [4, 9]: 0.738; CI (Combination Index) [5, 6]: 1.5; Fa (fraction affected) [5, 6]: 0.118; CI (Combination Index) [5, 7]: 1.9; Fa (fraction affected) [5, 7]: 0.299; CI (Combination Index) [5, 8]: 1.5; Fa (fraction affected) [5, 8]: 0.809; CI (Combination Index) [5, 9]: 0.5; Fa (fraction affected) [5, 9]: 0.995
CCCCCCCCCCCCCCC[C@H](O)[C@@H](N)CO [C18, (2S,3S)-2-amino-1,3-octadecanediol, reference compound]	>1	0.001	>1	0.01	>1	0.099	1.22	0.815	1.0	0.616	0.9	0.879	0.2	0.997	>0.1	1	1.5	0.122	1.5	0.202	CI (Combination Index) [3, 8]: 0.7; Fa (fraction affected) [3, 8]: 0.536; CI (Combination Index) [3, 9]: 0.5; Fa (fraction affected) [3, 9]: 0.761; CI [4, 6]: 1.1; Fa [4, 6]: 0.202; CI [4, 7]: 1.4; Fa [4, 7]: 0.346; CI [4, 8]: 1.1; Fa [4, 8]: 0.719; CI [4, 9]: 0.7; Fa [4, 9]: 0.918; CI (Combination Index) [5, 6]: 0.7; Fa (fraction affected) [5, 6]: 0.437; CI (Combination Index) [5, 7]: 0.7; Fa (fraction affected) [5, 7]: 0.728; CI (Combination Index) [5, 8]: 0.5; Fa (fraction affected) [5, 8]: 0.950; CI (Combination Index) [5, 9]: 0.6; Fa (fraction affected) [5, 9]: 0.958

— patent US20110152267A1, “Compositions and Methods for Treating Hyperproliferative Disorders” (Texas Tech University System, priority 2009, published 2011)
